{"source": "patent US9085569B2", "about": "“1,2,4-oxadiazol derivatives, process for their preparation and use thereof as intermediates in the preparation of indolic alkaloids” (CONSIGLIO NAZIONALE DELLE RICERCHE, priority 2012, dated 2015)", "origin": "cited, not measured here", "system": "HeLa cell line (uterine cervix cancer)", "conditions": "background statement", "data": [{"compound": "N=C(N)NCCCCCNc1noc(Cc2c[nH]c3ccccc23)n1", "note": "[phidianidine B]", "values": [{"measurement": "cytotoxic activity", "result": "high cytotoxic activity"}]}]}
